Laboratory results reported in the NIST ThermoML archive (doi:10.1016/j.jct.2016.09.010).

Assay: xn = mol fraction of the nth substance listed
Details: 100 kPa, Liquid; for speed of sound: Frequency=2 MHz, Linear variable-path acoustic interferometer; for mass density: Vibrating tube method

CCNc1ccccc1 [N-ethylaminobenzene] + CCOC(=O)C(C)O
Details	mass density, 303.15 K [kg/m3]	mass density, 308.15 K [kg/m3]	mass density, 313.15 K [kg/m3]	mass density, 318.15 K [kg/m3]	speed of sound, 303.15 K [m/s]	speed of sound, 308.15 K [m/s]	speed of sound, 313.15 K [m/s]	speed of sound, 318.15 K [m/s]
x2 = 0	952.41	947.69	942.95	938.23	1497	1481	1464	1448
x2 = 0.1195	960.29	955.52	950.71	945.92	1471.1	1455.4	1438.5	1422.6
x2 = 0.2183	966.93	962.08	957.2	952.34	1449.5	1433.6	1416.6	1400.6
x2 = 0.3177	973.69	968.76	963.8	958.86	1427.2	1411.2	1394	1377.7
x2 = 0.424	981.03	976.02	970.97	965.95	1402.7	1386.6	1369.2	1352.7
x2 = 0.5225	987.95	982.86	977.73	972.63	1379.6	1363.4	1345.8	1329.1
x2 = 0.6209	994.95	989.79	984.58	979.4	1355.9	1339.6	1321.8	1305
x2 = 0.726	1002.55	997.31	992.01	986.75	1330	1313.6	1295.6	1278.6
x2 = 0.8128	1008.91	1003.61	998.24	992.91	1308.3	1291.7	1273.6	1256.4
x2 = 0.9074	1015.91	1010.52	1005.09	999.68	1284.5	1267.6	1249.2	1231.8

CCOC(=O)C(C)O (stereo not drawn) [DL-ethyl lactate] + Nc1ccccc1
Details	mass density, 303.15 K [kg/m3]	mass density, 308.15 K [kg/m3]	mass density, 313.15 K [kg/m3]	mass density, 318.15 K [kg/m3]	speed of sound, 303.15 K [m/s]	speed of sound, 308.15 K [m/s]	speed of sound, 313.15 K [m/s]	speed of sound, 318.15 K [m/s]
x1 = 0.0788	1014.12	1010.12	1005.75	1001.3	1588.7	1570.3	1550.3	1531.4
x1 = 0.1638	1015.39	1011.23	1006.72	1002.15	1560.8	1542.5	1522.7	1504
x1 = 0.2514	1016.56	1012.23	1007.57	1002.88	1531.4	1513.2	1493.5	1474.8
x1 = 0.3445	1017.64	1013.15	1008.36	1003.55	1499.5	1481.4	1461.8	1443.2
x1 = 0.4393	1018.65	1014	1009.09	1004.17	1466.5	1448.5	1429	1410.5
x1 = 0.5461	1019.69	1014.87	1009.83	1004.79	1428.6	1410.8	1391.4	1373.1
x1 = 0.6484	1020.59	1015.62	1010.46	1005.31	1391.7	1374.1	1354.9	1336.8
x1 = 0.7644	1021.47	1016.33	1011.05	1005.79	1349.3	1331.9	1312.9	1295
x1 = 0.8737	1022.17	1016.88	1011.49	1006.13	1308.3	1291.1	1272.3	1254.7
x1 = 1	1022.88	1017.39	1011.83	1006.31	1261.1	1243.8	1224.8	1206.9

CNc1ccccc1 [N-methylaniline] + CCOC(=O)C(C)O
Details	mass density, 303.15 K [kg/m3]	mass density, 308.15 K [kg/m3]	mass density, 313.15 K [kg/m3]	mass density, 318.15 K [kg/m3]	speed of sound, 303.15 K [m/s]	speed of sound, 308.15 K [m/s]	speed of sound, 313.15 K [m/s]	speed of sound, 318.15 K [m/s]
x2 = 0	978.2	973.53	969.92	964.9	1547	1526.9	1511	1491.4
x2 = 0.1018	983.17	978.45	974.67	969.62	1520.1	1500.8	1485	1466.1
x2 = 0.1939	987.58	982.78	978.81	973.71	1495.5	1476.5	1460.5	1441.7
x2 = 0.2814	991.69	986.81	982.67	977.52	1471.8	1452.9	1436.6	1417.8
x2 = 0.3934	996.86	991.88	987.51	982.3	1440.7	1422.1	1405.4	1386.7
x2 = 0.491	1001.27	996.21	991.65	986.39	1413.1	1394.7	1377.7	1359.2
x2 = 0.5902	1005.66	1000.52	995.77	990.46	1384.5	1366.4	1349.1	1330.8
x2 = 0.6894	1009.96	1004.74	999.8	994.45	1355.5	1337.7	1320.1	1302
x2 = 0.7851	1014.03	1008.74	1003.62	998.22	1326.8	1309.5	1291.7	1273.8
x2 = 0.8937	1018.56	1013.19	1007.86	1002.41	1293.5	1276.4	1258.3	1240.7
